Results published in US8791132B2, “Compounds and methods for treatment of hypertension” (Medivation Technologies, Inc., priority 2011, dated 2014).
Where two headings read alike, the source gives them in different places.

Tests used:
[1] = biological target: T1, human recombinant adrenergic α2B receptor (Homo sapiens, UniProt P18089); assay: Radioligand binding, adrenergic α2B ([3H]Rauwolscine); details: for Percentage inhibition of ligand binding, Adrenergic α2B (0.03 μM) / Percentage inhibition of ligand binding, Adrenergic α2B: 0.03 µM
T1 construct: expressed in transfected cells; host or cells: CHO-K1
T1 sequence (P18089 1-450): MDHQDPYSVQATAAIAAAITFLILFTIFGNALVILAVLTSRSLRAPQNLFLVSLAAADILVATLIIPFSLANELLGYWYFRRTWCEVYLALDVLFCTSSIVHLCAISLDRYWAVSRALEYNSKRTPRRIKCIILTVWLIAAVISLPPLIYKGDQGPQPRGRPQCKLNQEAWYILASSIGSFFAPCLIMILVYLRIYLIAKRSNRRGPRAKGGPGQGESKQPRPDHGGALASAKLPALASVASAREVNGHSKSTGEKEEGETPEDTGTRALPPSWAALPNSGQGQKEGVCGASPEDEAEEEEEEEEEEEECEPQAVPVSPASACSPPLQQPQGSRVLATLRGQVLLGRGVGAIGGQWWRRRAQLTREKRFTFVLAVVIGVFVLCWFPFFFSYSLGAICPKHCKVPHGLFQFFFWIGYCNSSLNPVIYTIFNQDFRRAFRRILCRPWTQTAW
Protocol: To evaluate in radioligand binding assays the activity of compounds of the invention, human recombinant adrenergic α2B receptor expressed in Chinese hamster ovary (CHO) K1 cells (Uhlen, S. et al, Eur. J. Pharmacol. 343(1):93, 1998) in a modified Tris-HCl buffer (50 mM Tris-HCl, pH 7.4, 12.5 mM MgCl2, 1 mM EDTA, 0.2% BSA) was used. Compounds of the invention were incubated with 2.5 nM [3H]Rauwolscine for 60 min at 25° C. Non-specific binding was estimated in the presence of 10 μM Prazosin. Receptor proteins were filtered and washed, the filters were then counted to determine [3H]Rauwolscine specifically bound. […] Compounds of the invention were tested in this biochemical assay and percent inhibition of specific binding was determined. Biochemical assay results are presented as the percent inhibition of specific binding in Table B1.

[2] = biological target: T2, rat adrenergic α1B receptor (Rattus norvegicus, UniProt P15823); assay: Radioligand binding, adrenergic α1B ([3H]Prazosin); details: for Percentage inhibition of ligand binding, Adrenergic α1B (0.1 μM) / Percentage inhibition of ligand binding, Adrenergic α1B: 0.1 µM
T2 construct: rat adrenergic α1B receptor obtained from Wistar Rat liver; from tissue; host or cells: Wistar rat liver
T2 sequence (P15823 1-515): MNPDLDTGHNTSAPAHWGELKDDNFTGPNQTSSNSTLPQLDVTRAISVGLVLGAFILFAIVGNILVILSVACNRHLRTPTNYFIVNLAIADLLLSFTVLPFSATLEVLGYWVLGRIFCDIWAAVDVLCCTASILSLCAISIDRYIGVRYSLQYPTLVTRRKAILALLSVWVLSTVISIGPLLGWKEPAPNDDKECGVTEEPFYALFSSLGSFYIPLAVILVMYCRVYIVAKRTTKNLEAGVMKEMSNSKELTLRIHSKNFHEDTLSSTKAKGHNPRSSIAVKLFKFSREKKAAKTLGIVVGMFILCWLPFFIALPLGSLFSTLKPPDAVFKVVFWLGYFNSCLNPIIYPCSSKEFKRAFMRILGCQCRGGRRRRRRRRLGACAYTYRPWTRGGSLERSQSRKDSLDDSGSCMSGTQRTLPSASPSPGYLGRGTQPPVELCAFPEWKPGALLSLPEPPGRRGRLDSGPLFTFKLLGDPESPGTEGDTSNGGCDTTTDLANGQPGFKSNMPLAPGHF
Protocol: To evaluate in radioligand binding assays the activity of compounds of the invention, rat adrenergic α1B receptor obtained from Wistar Rat liver (Garcia-S'ainz, J. et al, Biochem. Biophys. Res. Commun. 186:760, 1992; Michel, A. et al, Br. J. Pharmacol. 98:883, 1989) in a modified Tris-HCl buffer (50 mM Tris-HCl buffer, pH 7.4, 0.5 mM EDTA) was used. Compounds of the invention were incubated with 0.25 nM [^3H]Prazosin for 60 min at 25° C. Non-specific binding was estimated in the presence of 10 μM phentolamine. Receptor proteins were filtered and washed, the filters were then counted to determine [^3H]Prazosin specifically bound. […] Compounds of the invention were tested in this biochemical assay and percent inhibition of specific binding was determined. Biochemical assay results are presented as the percent inhibition of specific binding in Table B1.

[3] = biological target: T3, human recombinant adrenergic α2A receptor (Homo sapiens, UniProt P08913); assay: Radioligand binding, adrenergic α2A ([3H]MK-912); details: for Percentage inhibition of ligand binding, Adrenergic α2A (0.1 μM) / Percentage inhibition of ligand binding, Adrenergic α2A: 0.1 µM
T3 construct: expressed in transfected cells; host or cells: insect Sf9 cells
T3 sequence (P08913 1-465): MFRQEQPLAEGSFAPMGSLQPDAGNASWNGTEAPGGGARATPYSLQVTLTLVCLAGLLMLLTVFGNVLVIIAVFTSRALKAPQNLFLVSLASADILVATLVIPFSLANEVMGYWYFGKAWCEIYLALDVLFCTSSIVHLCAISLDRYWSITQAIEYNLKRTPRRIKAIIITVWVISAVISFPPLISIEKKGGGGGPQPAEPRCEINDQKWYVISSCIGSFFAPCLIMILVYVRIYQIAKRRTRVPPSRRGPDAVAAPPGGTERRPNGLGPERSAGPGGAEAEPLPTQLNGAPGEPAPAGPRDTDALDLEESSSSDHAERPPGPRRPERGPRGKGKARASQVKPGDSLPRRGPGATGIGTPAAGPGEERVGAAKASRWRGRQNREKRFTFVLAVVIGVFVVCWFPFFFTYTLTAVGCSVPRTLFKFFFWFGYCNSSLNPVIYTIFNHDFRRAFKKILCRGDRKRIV
Protocol: To evaluate in radioligand binding assays the activity of compounds of the invention, human recombinant adrenergic α2A receptor expressed in insect Sf9 cells (Uhlen, S. et al, J. Pharmacol. Exp. Ther. 271:1558, 1994) in a modified Tris-HCl buffer (50 mM Tris-HCl, pH 7.4, 12.5 mM MgCl2, 2 mM EDTA) was used. Compounds of invention were incubated with 1 nM [^3H]MK-912 for 60 min at 25° C. MK912 is (2S-trans)-1,3,4,5′,6,6′,7,12b-octahydro-1′,3′-dimethyl-spiro[2H-benzofuro[2,3-a]quinolizine-2,4′(1′H)-pyrimidin]-2′(3′H)-one hydrochloride. Non-specific binding was estimated in the presence of 10 μM WB-4101 (2-(2,6-Dimethoxyphenoxyethyl)aminomethyl-1,4-benzodioxane hydrochloride). Receptor proteins were filtered and washed, the filters were then counted to determine [^3H]MK-912 specifically bound. […] Compounds of the invention were tested in this biochemical assay and percent inhibition of specific binding was determined. Biochemical assay results are presented as the percent inhibition of specific binding in Table B1.

[4] = 0.03 μM compound, read-out: Percentage inhibition of ligand binding, Adrenergic α2B
[5] = 0.1 μM compound, read-out: Percentage inhibition of ligand binding, Adrenergic α1B
[6] = compound at 0.03 μM, [3H]Rauwolscine, repeat datapoints each shown
[7] = compound at 0.1 μM, [3H]Prazosin, repeat datapoints each shown
[8] = compound at 0.1 μM, [3H]MK-912, repeat datapoints each shown
[9] = compound at 0.03 μM, [3H]Rauwolscine, repeat assays, each datapoint shown
[10] = compound at 0.1 μM, [3H]Prazosin, repeat assays, each datapoint shown
[11] = compound at 0.1 μM, [3H]MK-912, repeat assays, each datapoint shown
[12] = read-out: Percentage inhibition of ligand binding, Adrenergic α2B (0.03 μM), compound at 0.03 μM, [3H]Rauwolscine, repeat datapoints each shown
[13] = read-out: Percentage inhibition of ligand binding, Adrenergic α1B (0.1 μM), compound at 0.1 μM, [3H]Prazosin, repeat datapoints each shown
[14] = read-out: Percentage inhibition of ligand binding, Adrenergic α2A (0.1 μM), compound at 0.1 μM, [3H]MK-912, repeat datapoints each shown
[15] = compound at 0.1 μM, [3H]Prazosin, repeat assays, each datapoint shown, read-out: Percentage inhibition of ligand binding, Adrenergic α1B

How did the inhibition at 0.03 µM [1, 4] turn out when `OCc1ccc2c(c1)c1c(n2CC(O)c2ccncc2)CCNC1` (stereo not drawn) [II-81, 2-(8-hydroxymethyl-1,2,3,4-tetrahydro-pyrido[4,3-b]indol-5-yl)-1-pyridin-4-yl-ethanol] was run?
The inhibition at 0.03 µM was -9%.

What about the inhibition at 0.1 µM [2, 5] of the same compound?
Its inhibition at 0.1 µM is -1%.

And the inhibition at 0.1 µM ([3]; 0.1 μM compound, read-out: Percentage inhibition of ligand binding, Adrenergic α2A)?
The inhibition at 0.1 µM was 15%.

What does the source list for `Cc1ccc2c(c1)c1c(n2CC(OC(=O)c2ccncc2)c2ccncc2)CCN(C)C1` (single isomer, unassigned) [147a, isonicotinic acid 2-(2,8-dimethyl-1,2,3,4-tetrahydro-pyrido[4,3-b]indol-5-yl)-1-pyridin-4-yl-ethylester]?
Percentage inhibition of ligand binding, Adrenergic α2B (0.03 μM) [1, 6]: 72%; Percentage inhibition of ligand binding, Adrenergic α1B (0.1 μM) [2, 7]: 33%; Percentage inhibition of ligand binding, Adrenergic α2A (0.1 μM) [3, 8]: 3%

Which results are given for `Cc1cnc2c(c1)c1c(n2CC(O)c2ccncc2)CCNC1` (single isomer, unassigned) [58b, 2-(3-methyl-5,6,7,8-tetrahydro-1,6,9-triaza-fluoren-9-yl)-1-pyridin-4-yl-ethanol]?
Percentage inhibition of ligand binding, Adrenergic α2B [1, 9]: 39%; Percentage inhibition of ligand binding, Adrenergic α1B [2, 10]: 24%; Percentage inhibition of ligand binding, Adrenergic α2A [3, 11]: 0%

`Cc1ccc2c(c1)c1c(n2CC(C)(O)c2ccc(C)nc2)CCN2CCCC12` (stereo not drawn) [II-128a, 1-(9-methyl-1,2,3,4,5,10c-hexahydro-3a,6-diaza-cyclopenta[c]fluoren-6-yl)-2-(6-methyl-pyridin-3-yl)-propan-2-ol] was tested. Which inhibition at 0.03 µM [1, 12] did it give?
Its inhibition at 0.03 µM is 97%.

What about the inhibition at 0.1 µM [2, 13] of the same compound?
Its inhibition at 0.1 µM is 61%.

And the inhibition at 0.1 µM [3, 14]?
Its inhibition at 0.1 µM is 34%.

Which inhibition at 0.03 µM [1, 12] does the source give for `C/C(=C\n1c2c(c3cc(C)ccc31)C1CCCN1CC2)c1ccc(F)cc1` (stereo not drawn) [194a, 7-(2-(4-fluorophenyl)prop-1-enyl)-10-methyl-2,3,5,6,7,11c-hexahydro-1H-indolizino[7,8-b]indole] here?
Its inhibition at 0.03 µM is 106%.

What about the inhibition at 0.1 µM [2, 13] of the same compound?
The inhibition at 0.1 µM was 100%.

And the inhibition at 0.1 µM [3, 14]?
The inhibition at 0.1 µM was 98%.

`CN1Cc2c(n(CC(O)c3ccncc3)c3ncccc23)C(C)(C)C1` (stereo not drawn) [compound 17, 1-pyridin-4-yl-2-(6,8,8-trimethyl-5,6,7,8-tetrahydro-1,6,9-triaza-fluoren-9-yl)-ethanol] was tested. Which inhibition at 0.03 µM ([1]; compound at 0.03 μM, [3H]Rauwolscine, repeat assays, each datapoint shown, read-out: Percentage inhibition of ligand binding, Adrenergic α2B) did it give?
The inhibition at 0.03 µM was 37%.

And the inhibition at 0.1 µM [2, 15]?
The inhibition at 0.1 µM was 18%.

And the “Percentage inhibition of ligand binding, Adrenergic α2A” value [3, 11]?
The value was 19%.

Which “Percentage inhibition of ligand binding, Adrenergic α2B (0.03 μM)” value [1, 6] does the source give for `Cc1ccc2c(c1)c1c(n2CC(O)c2ccncc2Cl)CCN(C)C1` (single isomer, unassigned) [135b] here?
Its value is 68%.

And the “Percentage inhibition of ligand binding, Adrenergic α1B (0.1 μM)” value [2, 7]?
The value was 30%.

What about the “Percentage inhibition of ligand binding, Adrenergic α2A (0.1 μM)” value [3, 8] of the same compound?
The value was 22%.

How did the inhibition at 0.03 µM [1, 4] turn out when `CC(=O)OC(C)(Cn1c2c(c3cc(C)ccc31)CN(C)CC2)c1cccnc1` (single isomer, unassigned) [II-15a, acetic acid 2-(2,8-dimethyl-1,2,3,4-tetrahydro-pyrido[4,3-b]indol-5-yl)-1-methyl-1-pyridin-3-yl-ethyl ester] was run?
The inhibition at 0.03 µM was 47%.

And the “Percentage inhibition of ligand binding, Adrenergic α1B” value ([2]; 0.1 μM compound)?
Its value is 61%.

And the “Percentage inhibition of ligand binding, Adrenergic α2A” value ([3]; 0.1 μM compound)?
Its value is 7%.

For `Cc1ccc2c(c1)c1c(n2CC(C)(c2cnccn2)N(C)C)CCN2CCCC12` (single isomer, unassigned) [II-6a, dimethyl-[1-methyl-2-(9-methyl-1,2,3,4,5,10c-hexahydro-3a,6-diaza-cyclopenta[c]fluoren-6-yl)-1-pyrazin-2-yl-ethyl]-amine], which inhibition at 0.03 µM [1, 4] is on record?
Its inhibition at 0.03 µM is 85%.

What about the “Percentage inhibition of ligand binding, Adrenergic α1B” value ([2]; 0.1 μM compound) of the same compound?
Its value is 66%.

What about the “Percentage inhibition of ligand binding, Adrenergic α2A” value ([3]; 0.1 μM compound) of the same compound?
The value was 45%.

Which results are given for `Cc1ccc2c(c1)c1c(n2CC(O)c2cccnc2)CCNC1` (single isomer, unassigned) [9a, 2-(8-methyl-1,2,3,4-tetrahydro-pyrido[4,3-b]indol-5-yl)-1-pyridin-3-yl-ethanol]?
Percentage inhibition of ligand binding, Adrenergic α2B [1, 9]: 23%; Percentage inhibition of ligand binding, Adrenergic α1B [2, 10]: 11%; Percentage inhibition of ligand binding, Adrenergic α2A [3, 11]: 4%

What does the source list for `Cc1ccc2c(c1)c1c(n2CC(O)c2ccncc2)CN(C)CC1` (stereo not drawn) [compound 8]?
inhibition at 0.1 µM [2, 15]: 58%; inhibition at 0.1 µM ([3]; compound at 0.1 μM, [3H]MK-912, repeat assays, each datapoint shown, read-out: Percentage inhibition of ligand binding, Adrenergic α2A): 23%

Which results are given for `Cc1ccc2c(c1)c1c(n2CC(O)c2ccc(C(=O)N(C)C)cc2)CCN(C)C1` (single isomer, unassigned) [52b]?
Percentage inhibition of ligand binding, Adrenergic α1B [2, 10]: 73%; Percentage inhibition of ligand binding, Adrenergic α2A [3, 11]: 29%

`CN1CCc2c(n(CC(O)c3ccc(F)c(F)c3)c3ccc(Cl)cc23)CC1` (single isomer, unassigned) [339a] was tested. Which inhibition at 0.1 µM [2, 5] did it give?
Its inhibition at 0.1 µM is 13%.

What about the “Percentage inhibition of ligand binding, Adrenergic α2A” value ([3]; 0.1 μM compound) of the same compound?
Its value is 37%.
